Experimental findings from ChEMBL document CHEMBL4368864, “The transition to magic bullets - transition state analogue drug design” (Medchemcomm, 2018) are described below.

Data set [1] can be described thus: Inhibition of Crithidia fasciculata nucleoside hydrolase.
Data set [2] can be described thus: Oral bioavailability in mouse. It is filed as ADME, organism-based. The following applies: in vivo.
The target of data set [3] is T1, Purine nucleoside phosphorylase (Bos taurus, UniProt P55859).
T1 sequence (P55859 whole entry): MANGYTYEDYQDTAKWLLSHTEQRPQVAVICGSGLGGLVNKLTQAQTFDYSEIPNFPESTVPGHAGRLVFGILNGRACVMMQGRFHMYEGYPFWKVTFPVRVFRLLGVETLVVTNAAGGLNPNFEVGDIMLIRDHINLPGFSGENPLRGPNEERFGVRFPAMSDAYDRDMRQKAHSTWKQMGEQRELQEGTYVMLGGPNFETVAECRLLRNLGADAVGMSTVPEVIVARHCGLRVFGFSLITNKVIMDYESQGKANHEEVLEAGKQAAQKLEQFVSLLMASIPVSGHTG
Description: Inhibition of bovine spleen PNP using inosine as substrate by xanthine oxidase coupled assay.

Data set [4] has as its target T2, Purine nucleoside phosphorylase (Homo sapiens, UniProt P00491).
T2 sequence (P00491 whole entry): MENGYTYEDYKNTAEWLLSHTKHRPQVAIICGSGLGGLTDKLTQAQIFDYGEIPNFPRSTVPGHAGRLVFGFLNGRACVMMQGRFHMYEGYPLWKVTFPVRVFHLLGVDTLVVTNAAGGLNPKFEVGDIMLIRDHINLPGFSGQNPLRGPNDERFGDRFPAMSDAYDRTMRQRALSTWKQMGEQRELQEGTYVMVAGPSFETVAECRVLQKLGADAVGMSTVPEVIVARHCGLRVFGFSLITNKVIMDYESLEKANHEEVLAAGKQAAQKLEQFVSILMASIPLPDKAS
Nature of the data set: Inhibition of human PNP using inosine as substrate by xanthine oxidase coupled assay.

The target in data set [5] is T2, Purine nucleoside phosphorylase. Description: Inhibition of human PNP.

What is called Ki is a measure of affinity in units of concentration, obtained from inhibition or displacement. The compound `OC[C@H]1N[C@@H](c2cnc[nH]2)[C@H](O)[C@@H]1O` yielded an inhibition constant Ki in data set [1] of 2500 nM.

Broadly, the bioavailability is dose-corrected exposure relative to a reference, in per cent. As for `O=c1[nH]cnc2c([C@@H]3N[C@H](CO)[C@@H](O)[C@H]3O)c[nH]c12` [FORODESINE], in data set [2], the bioavailability came out at 63%.

As to `Nc1ncnc2c([C@@H]3N[C@H](CO)[C@@H](O)[C@H]3O)c[nH]c12`, the figures for the Ki in data set [3] and in data set [4] were 2600 nM and 33 nM, respectively.

In data set [5], `Nc1nc2c(ncn2COCCO)c(=O)[nH]1` [ACYCLOVIR] yielded a Ki of 91000 nM.

In data set [1], `O=c1[nH]cnc2c1ncn2[C@@H]1O[C@H](CO)[C@@H](O)[C@H]1O` [INOSINE] came in with a Ki of 380000 nM.

`O=c1[nH]ccn2c([C@@H]3N[C@H](CO)[C@@H](O)[C@H]3O)cnc12` came in with a Ki in data set [3] of 422000 nM.

Consider `OC[C@H]1N[C@@H](c2ccccc2)[C@H](O)[C@@H]1O`, for which the affinity in data set [1] corresponds to a Ki of 170 nM.

Consider `OC[C@H]1NC[C@H](O)[C@@H]1O` [IMINORIBITOL], for which, in data set [1], the affinity corresponds to a Ki of 10000 nM.

`Nc1nc2c(Cc3cccnc3)c[nH]c2c(=O)[nH]1` [PELDESINE] had a Ki in data set [5] of 13.5 nM.
